Earlier results in patent US20140142181A1, “TREATING AND INHIBITING RECURRENCE OF MUSCLE CRAMPS” (priority 2012, published 2014).

Legend:
[1] = test system: cramping; details: 39 Division I baseball players; creatine supplementation during training and competition
[2] = received by USFDA; quinine use

Row | SMILES | Cramping, creatine group versus non-creatine group [1] | Deaths among reported adverse events [2] | Reports of adverse events with serious outcomes [2]
1 | CN(CC(=O)O)C(=N)N [creatine] | no significant difference |  | 
2 | C=C[C@H]1C[N@@]2CC[C@H]1C[C@H]2[C@H](O)c1ccnc2ccc(OC)cc12 [quinine, Quinine] |  | 93 | 665
